Reference: patent US20260315507A1, “COMBINATION OF VITAMINS AND OLIGOSACCHARIDES FOR ENHANCING BONE GROWTH AND/OR BONE STRENGTH” (SOCIÉTÉ DES PRODUITS NESTLÉ S.A., priority 2023, published 2026)

Columns and labels:
[1] = system: osteocalcin mRNA in MC3T3-E1 subclone 4 cells; assay: Osteocalcin mRNA levels (qPCR) in pre-osteoblastic cell line; format: cell-based; conditions: 21 days of differentiation, without ascorbic acid; 3 μM menaquinone-7, 1 nM 1α,25-dihydroxyvitamin D3 or 100 nM all-trans-retinoic acid; FIG. 1B
Excerpt: (§1) The pre-osteoblastic cell line MC3T3-E1 subclone 4 (CRL-2593) was purchased from ATCC (Manassas; Virginia, USA). Cells were maintained in growth medium (GM) composed of ascorbic acid-free αMEM (ThermoFisher Scientific), supplemented with 10% fetal calf serum (FCS, ThermoFisher Scientific) and 1% penicillin/streptomycin. All culture media were refreshed every 2-3 days. Cells were passaged with trypsin/EDTA solution at less than 80% confluence. To induce differentiation into osteoblasts, cells were seeded at 5×10^4 cells/cm^2 and grown to confluency in GM for 24 h. Then, the medium was switched to differentiation medium (DM) composed of GM supplemented with 10 mM β-glycerophosphate and treatment solutions of interest. Ascorbic acid 50 μg/ml was also added to the DM depending on the experiment.
MC3T3-E1 subclone 4 cells were differentiated for 21 days (in DM without ascorbic acid except for the positive control) or 28 days (in DM containing ascorbic acid). Cells were then collected for gene expression analysis. […] RNA concentrations were measured using the DropSense96 (TRINEAN, Gentbrugge, Belgium).
cDNAs were synthetized using High-Capacity cDNA Reverse Transcription Kit (AppliedBiosystems; Waltham, Massachusetts, USA) according to the manufacturer's instructions. […] The relative gene expression was evaluated via the 2^-ΔCt method.

[2] = system: MC3T3-E1 subclone 4 cells; assay: Osteoblast alkaline phosphatase (ALP) activity in pre-osteoblastic cell line; format: cell-based; conditions: 7 days of differentiation, without ascorbic acid; 3 μM menaquinone-7, 1 nM 1α,25-dihydroxyvitamin D3 or 100 nM all-trans-retinoic acid; FIG. 1A
Excerpt: as §1, with “experiment. […]” for “experiment.”
After 7 days of differentiation, cells were then collected for alkaline phosphatase (ALP) activity measurement as described previously with minor modifications. […] Enzymatic reaction was monitored at 405 nm after 4-Nitrophenyl phosphate disodium salt hexahydrate addition. Michaelis-Menten kinetics were evaluated at 30° C. for 30 min. […] The activity value was normalized by protein content measured via the Pierce BCA Protein Assay Kit (ThermoFisher Scientific) according to the manufacturer's instructions.

| Structure (SMILES) | effect on osteocalcin expression (mRNA) [1] | effect on ALP activity (marker of osteoblast differentiation) [2] |
| --- | --- | --- |
| CC1=C(/C=C/C(C)=C/C=C/C(C)=C/C(=O)O)C(C)(C)CCC1 [vitamin A, all-trans-retinoic acid] | no significant effect | – |
| C=C1/C(=C\C=C2/CCC[C@]3(C)[C@@H]([C@H](C)CCCC(C)(C)O)CC[C@@H]23)C[C@@H](O)C[C@@H]1O [vitamin D, 1α,25-Dihydroxyvitamin D3] | no significant effect | – |
| CC(C)=CCC/C(C)=C/CC/C(C)=C/CC/C(C)=C/CC/C(C)=C/CC/C(C)=C/CC/C(C)=C/CC1=C(C)C(=O)c2ccccc2C1=O [vitamin K2, menaquinone-7] | – | no significant effect |
